Source: article PMC13164762, “Development and Validation of an LC-MS/MS Method for the Quantitation of JNJ-64619178 (JNJ) in Mouse Plasma: Characterization of In Vitro and In Vivo Pharmacokinetic Properties” (Molecules, 2026)
Values after ≈ are worked out from the molar mass of the structure shown.

Columns and labels:
[1] = Matrix stability study in mouse plasma; assay type: in vitro ADME; conditions: 5 µg mL^−1, 37 °C, approximately 5 h, triplicate, read-out: concentration remaining (%)
Experimental: (§1) For the matrix stability study, JNJ was spiked into mouse plasma and brain homogenate at a final concentration of 5 µg mL^−1 and incubated at 37 °C for 5 h on a shaking water bath in triplicate. At the specified sampling times, 50 µL aliquots were taken in the collection plate, followed by quenching with 300 µL acetonitrile containing 10 µL IS. After final collection, samples were vortexed at 1000 rpm for 2 min and centrifuged at 2200× g for 10 min, and the collected supernatant was analyzed using LC-MS/MS. Stability was estimated by determining the % remaining after 5 h of incubation using Equation (1).(1) % remaining=Concentration5h/Concentration0h×100

Kinetic solubility study = assay type: physicochemical; conditions: PBS, room temperature, read-out: kinetic aqueous solubility
Experimental: An amount of 500 µL of PBS was taken into a 96-well plate in the required rows. The required volume of the JNJ stock solution was spiked to make the final concentrations of 160, 80, 60, 50, 40, 20, 10, and 5 µg mL^−1. The plate was vortexed at 1000 rpm for 5 min and incubated at room temperature for 2 h. After incubation, aliquots of 100 µL of the samples were collected and diluted 2 times with acetonitrile. Diluted samples were centrifuged at 2200× g for 10 min. Then, 10 µL of supernatant was added to another collection plate, where previously 200 µL of the mobile phase supplemented with 10 µL IS was taken.

[2] = Blood-to-plasma ratio (Rb/p) study; assay type: in vitro ADME; conditions: balb/c mouse whole blood
Experimental: Freshly collected whole blood (400 µL) of balb/c mice was taken into an Eppendorf tube, and JNJ was spiked to obtain a final concentration at 5 µg mL^−1 following proper mixing. Blood and plasma samples were collected at 0, 30, and 60 min and processed using the previously described extraction procedure. Rb/p was then estimated by dividing the JNJ concentration in blood by the concentration obtained in plasma samples separated from blood using Equation (5), where CBlood is the drug concentration in blood and CPlasma is the drug concentration in plasma.(7) Rb/p=CBlood/CPlasma

[3] = Rapid equilibrium dialysis (RED) brain protein binding; assay type: in vitro ADME, mouse; conditions: for fraction unbound at 5 h: mouse, brain homogenate
Experimental: (§2) A rapid equilibrium dialysis (RED) protein binding assay was performed to determine the protein binding of JNJ in plasma and brain matrix. The RED plate was obtained from Thermo Fisher Scientific (Frederick, MD, USA) for the experiment. An aliquot (200 µL) of JNJ spiked plasma/brain homogenate was poured into the donor chamber, and 400 µL dialysis buffer-PBS containing 100 mM sodium phosphate and 150 mM sodium chloride was added into the receiver compartment of each RED insert in triplicate. The plate was kept in incubation for 5 h on the orbital shaker at 37 °C. Following incubation, 50 µL plasma and buffer aliquots were collected separately, and an equal volume of opposite matrix was added. Collected samples were processed as previously described in Section 4.6 and analyzed using LC-MS/MS. Degree of protein binding (%) was calculated by the following equation:(6) Protein bound (%)=Concentrationdonor cell−Concentrationreceiver cell/Concentrationdonor cell×100

HD-MB cell line = conditions: method and reference not given; cited from earlier work
[4] = Caco-2 permeability study; assay type: in vitro ADME, human; conditions: human, Caco-2, absorptive direction (apical to basal), read-out: apparent permeability (Papp), Caco-2
Experimental: (§3) Human colon carcinoma cells (Caco-2) were obtained from ATCC (American Type Culture Collection) (Manassas, VA, USA). Caco-2 cells were cultured in Dulbecco’s Modified Eagle’s Medium (DMEM), supplemented with 10% fetal bovine serum, 1% nonessential amino acids, 100 U mL^−1 penicillin, and 100 µg mL^−1 streptomycin. The cells were split upon reaching the 80–90% confluence to make them ready to seed. Afterwards, the cells were seeded at a density of 80,000 cells/well in a 12-well tissue culture plate with a 0.4 µm pore size, purchased from CELLTREAT Scientific Products (Pepperell, MA, USA), and incubated at 37 °C in an incubator with 5% CO2 conditions. […] The integrity of the monolayer was evaluated by measuring the transepithelial electrical resistance (TEER) value using EVOM2™ Epithelial Voltohmmeter purchased from World Precision Instruments Inc. (Sarasota, FL, USA).
(§4) JNJ was spiked at a final concentration of 10 µM to the apical side in a volume of 500 µL HBSS-HEPES (10 mM) buffer along with the positive control (propranolol and atenolol) in respective wells. […] After determined timepoints (0, 30, 60, 90, and 120 min), 100 µL aliquots were collected from the apical or basolateral sites, each time replacing with an equal volume of blank buffer. […]

Caco-2 cell monolayer = assay: Caco-2 permeability study; assay type: in vitro ADME, human; conditions: absorptive direction (apical to basal), 10 µM
Experimental: as §3, §4

[5] = Matrix stability study in mouse brain homogenate; assay type: in vitro ADME; conditions: 5 µg mL^−1, 37 °C, approximately 5 h, triplicate, read-out: concentration remaining (%)
Experimental: as §1

[6] = input for fu,inc equation; source not given; cited from earlier work
[7] = Rapid equilibrium dialysis (RED) plasma protein binding; assay type: in vitro ADME; conditions: for fraction unbound at 5 h: mouse, plasma
Experimental: as §2

Q: Which remaining at 5 h, 5 µg mL^−1 [1] does the source give for `Nc1nc2cc(CC[C@H]3C[C@@H](n4ccc5c(N)ncnc54)[C@H](O)[C@@H]3O)ccc2cc1Br` [JNJ, JNJ-64619178] here?
A: The remaining at 5 h, 5 µg mL^−1 was about 100%.

Q: And the solubility kinetic at 2 h (Kinetic solubility study)?
A: Its solubility kinetic at 2 h is 3 ± 0.6 µg/mL (≈ 6.21 µM).

Q: What about the blood plasma ratio at 5 µg mL^−1 [2] of the same molecule?
A: Its blood plasma ratio at 5 µg mL^−1 is about 0.7.

Q: And the “Brain Protein Binding (%)” value ([3]; mouse brain homogenate, RED, 5 h, 37 °C, n = 3)?
A: The value was 94 ± 1%.

Q: What about the fraction unbound at 5 h ([3]; mouse brain homogenate, RED, 5 h, 37 °C, n = 3, read-out: Brain Protein Binding (%)) of the same molecule?
A: The fraction unbound at 5 h was under 0.06.

Q: And the fraction unbound at 5 h ([3]; mouse brain, read-out: fraction unbound in brain (fu,brain))?
A: Its fraction unbound at 5 h is 0.057.

Q: What about the IC50 (HD-MB cell line) of the same molecule?
A: The IC50 was 1.7 µM.

Q: What about the “In Vitro IC50” value (HD-MB cell line) of the same molecule?
A: The value was 0.821 µg/mL.

Q: And the Papp A→B at 120 min, 10 µM [4]?
A: Its Papp A→B at 120 min, 10 µM is 3.4 ± 0.4 ×10⁻⁶ cm/s.

Q: And the “apparent permeability (Papp), Caco-2” value (Caco-2 cell monolayer)?
A: The value was 3 ± 0.4 (×10^−6) cm s^−1.

Q: And the remaining at 5 h, 5 µg mL^−1 [5]?
A: Its remaining at 5 h, 5 µg mL^−1 is about 100%.

Q: And the logP [6]?
A: The logP was 2.3.

Q: And the “Plasma Protein Binding (%)” value ([7]; mouse plasma, RED, 5 h, 37 °C, n = 3)?
A: Its value is 97 ± 3%.

Q: And the fraction unbound at 5 h ([7]; RED, 5 h, 37 °C, n = 3, read-out: Plasma Protein Binding (%))?
A: The fraction unbound at 5 h was under 0.06.

Q: And the fraction unbound at 5 h ([7]; read-out: fraction unbound in plasma (fu,plasma))?
A: The fraction unbound at 5 h was 0.025.
